How the values were obtained:
[1] = system: Nitrososphaera viennensis; experiment: Nitrification inhibition assay on Nitrososphaera viennensis (nitrite, Griess); type: cell-based, Nitrososphaera viennensis EN76T; details: Nitrososphaera viennensis; 2.5 µM compound; structural variants outside formula (I); read-out: Relative nitrification (%) by Nitrososphaera viennensis treated with 2.5 µM compound
Method: Nitrite (NO2—) was measured using the Griess reagent (Product number: G4410, Griess reagent (modified), Sigma-Aldrich). Equal volumes of the sample or a diluted sample and the Griess reagent were mixed a transparent flat bottom multi-well plate and incubated in the dark at room temperature for 10 minutes. Absorbance values at 540 nm were measured spectrophotometrically (EnVision, Perkin Elmer®) and used to calculate the [NO2—] by use of a standard curve.
A liquid culture sample of Nitrososphaera viennensis EN76T was kindly supplied by prof. dr. Christa Schleper (University of Vienna). Cells were grown in fresh water medium (FWM) as described earlier by Tourna et al. (2011). All necessary materials were rinsed with 1 % HCl and washed at least 3 times with MilliQ water. FWM (pH 7.5 (KOH)) contained 17 mM NaCl, 3 mM MgCl2 × 2 H2O, 680 µM CaCl2 × 2 H2O, 1.47 mM KH2PO4 and 6.71 mM KCI. After autoclaving, successively 1 mL non-chelated trace element mixture (101 mM HCl, 488 µM H3BO3, 508 µM MnCl2 × 4 H2O, 803 µM CoCl2 × 6 H2O, 101 µM NiCl2 × 6 H2O, 12 µM CuCl2 × 2 H2O, 503 µM ZnSO4 × 7 H2O and 150 µM Na2MoO4 × 2 H2O), 1 mL Fe-NaEDTA (7.5 mM), 1 mL vitamin solution (20 mg/L biotin, 20 mg/L folic acid, 100 mg/L pyridoxine-HCl, 50 mg/L thiamine-HCl, 50 mg/L riboflavin, 50 mg/L nicotinic acid, 50 mg/L DL-pantothenic acid, 50 mg/L P-aminobenzoic acid, 2 g/L choline chloride and 10 mg/L vitamin B12), 2 mL NaHCO3 (1 M), 2 mL kanamycin (100 mg/mL), 2 mL carbenicillin (100 mg/mL), 3 mL NH4Cl (1 M), 10 mL HEPES buffer (1 M, pH 7.6) and 1 mL Na-pyruvate (0.1 M) were added aseptically. All stock-solutions were filter-sterilized, except the autoclaved non-chelated trace element mixture. Cultures were incubated aerobically at 42° C. without shaking in sterile 250-mL Erlenmeyer flasks or 30-mL cultivation tubes (Product number: 216-1290, Quickstart universal containers STERILIN®, VWR) filled with either 100 or 20 mL FWM and sealed with tape (Micropore™ Surgical Tape 1530-1, 3M™). Late-log phase cultures ([NO2-] ≥ 1 mM) were subcultivated by dilution (1:400) in fresh FWM.
7-day old 100 mL cultures grown in 250-mL Erlenmeyer flasks with a [NO2-] ≥ 1 mM were 5 times overconcentrated in fresh FWM by centrifugation (4000 rpm, 15 min, 5° C.) in 50 mL centrifuge tubes (Cat. No. 430829, CentriStar™ Conical Centrifuge Tubes, Corning®). Per batch, all the cultures were pooled in one sterile Schott bottle. Subsequently, 200 µl/well was dispensed at low pipetting speed in transparent flat bottom 96-well plates (Cat. No. 353072, Falcon® 96 Well Clear Microplate, Corning®) using 150 µl wide-bore tips (two steps of 100 µl) on a Tecan robot (Freedom EVO®, Tecan). 0.5 µl of 99.99 % DMSO (negative control - final concentration 0.25%) and 0.5 µl of 0.04 M PTIO (2-phenyl-4,4,5,5-tetramethylimidazoline-1-oxyl 3-oxide, positive control - final concentration 100 µM) were added manually to the first and last column respectively. Finally, 0.5 µl of candidate nitrification inhibitors (1 mM stock solutions in 99.99% DMSO - final concentration 2.5 µM) were added to the central wells using a pin tool on a Tecan robot (Freedom EVO®, Tecan). In between additions, the pins were washed in sequence with 99.5% DMSO, MilliQ water and 100% ethanol and air-dried. All plates were sealed with tape (Micropore™ Surgical Tape 1530-1, 3M™), stacked per 4 on top of a 96-well plate filled with 100 µl MilliQ per well and covered with aluminum foil. Position effects of the stacks within the incubator were considered. Plates were incubated at 42° C. without shaking. 24 h later, NO2— was measured spectrophotometrically at 540 nm (EnVision, Perkin Elmer®). […]

[2] = system: ABIL (ammonia-binding liquid inoculum), nitrifying microbial enrichment containing both AOA and AOB; experiment: Nitrification inhibition assay on ABIL (ammonium consumption); type: cell-based; details: 10 µM compound; structural variants outside formula (I); read-out: Relative nitrification (%) by ABIL treated with 10 µM compound

Structure (SMILES) | activity at 2.5 µM [1] | activity at 10 µM [2]
Cc1nc2c(c(C)nn2C)c(C)c1CCC(=O)NCCc1ccc2c(c1)OCO2 [Example 47] | 100% | 100%
Cc1nc2c(cc1C(=O)NC(C)C1CCCO1)c(C)nn2C (stereo not shown) [Example 48] | 99% | 100%
COCCC1(C(=O)Nc2cnc3[nH]nc(C)c3c2)CCCC1 [Example 49] | 100% | 100%
CC(C)n1ncc2cc(NC(=O)C3(C)CC3(Cl)Cl)cnc21 (stereo not shown) [Example 50] | 92% | 100%
CC(CCc1ccco1)NC(=O)c1cnc2c(cnn2Cc2ccccc2)c1 (stereo not shown) [Example 51] | 91% | 100%
CC(NC(=O)c1cnc2c(cnn2C(C)C)c1)C1CCCO1 (stereo not shown) [Example 52] | 100% | 100%
CC(C)n1ncc2cc(NC(=O)C3=CN4CCS(=O)(=O)N=C4C=C3)cnc21 [Example 53] | 95% | 100%
CCC(CC)CN(CC)C(=O)c1cnc2c(c1)c(C)nn2C [Example 54] | 96% | 100%
Cc1nnc(NC(=O)c2cnc3c(cnn3C(C)C)c2)s1 [Example 55] | 100% | 100%
CC(C)n1ncc2cc(NC(=O)Cc3ccc(F)cc3)cnc21 [Example 56] | 100% | 100%
Cc1nc2c(c(C)nn2C)c(C)c1CCC(=O)NC(C)C1CCCO1 (stereo not shown) [Example 57] | 97% | 100%
CCC1CN(C(=O)CCc2c(C)nc3c(c(C)nn3C)c2C)CCO1 (stereo not shown) [Example 58] | 98% | 100%
Cc1nn(C)c2ncc(CNCc3ccc(N4CCCC4)nc3)cc12 [Example 59] | 92% | 100%
Cc1nc2c(c(C)nn2C)c(C)c1CCC(=O)N1CCOCC1 [Example 60] | 100% | 100%
CC(C)n1ncc2cc(C(=O)O)cnc21 [Example 61] | 100% | 100%
Cc1nc2c(cnn2C(C)C)cc1C(=O)NC(C)c1ccccc1Br (stereo not shown) [Example 62] | 100% | 100%
Cc1nc2c(cnn2C(C)C)c(C)c1CCC(=O)NC12CC3CC(CC(C3)C1)C2 [Example 63] | 100% | 100%
CCC(C)(CC)NC(=O)COc1nn(C)c2nc(C)cc(C)c12 [Example 64] | 100% | 100%
CC(C)n1ncc2cc(NC(=O)CCc3cc4ccccc4o3)cnc21 [Example 65] | 100% | 100%
Cc1cc(-c2nc(-c3ccc4c(c3)OCO4)no2)c2c(C)nn(C)c2n1 [Example 66] | 99% | 100%
Cc1cc(C)c2c(OCC(=O)N(CC(F)F)C3CC3)nn(C)c2n1 [Example 67] | 100% | 100%
CC(C)n1ncc2cc(NC(=O)CCC(=O)c3ccccc3)cnc21 [Example 68] | 100% | 100%
CNC(=O)C1(C(=O)Nc2cnc3c(cnn3C(C)C)c2)CC1 [Example 69] | 100% | 100%
Cc1n[nH]c2ncc(CNCc3ccc4c(c3)OCO4)cc12 [Example 70] | 100% | 100%
Cc1cccc(C)c1OCC(=O)Nc1cnc2c(cnn2C(C)C)c1 [Example 71] | 94% | 100%

Structure (SMILES) | activity at 2.5 µM [1] | activity at 10 µM [2]
Cc1nn(-c2ccc(F)cc2)c2nc3c(cc12)C(=O)CC(C)(C)C3 [Example 72] | 99% | 100%
CCOc1cc(C(=O)Nc2cnc3c(cnn3C(C)C)c2)c([N+](=O)[O-])cc1OC [Example 73] | 93% | 100%
Cc1nc2c(cnn2C(C)C)cc1C(=O)N1CCc2ccccc21 [Example 74] | 100% | 100%
Cc1nc2c(c(C)nn2C)c(C)c1CCC(=O)N1CCOCC1C (stereo not shown) [Example 75] | 100% | 100%
Cc1nn(C)c2ncc(NC(=O)CCC3CCCO3)cc12 (stereo not shown) [Example 76] | 100% | 100%
Cc1nc2c(c(C)nn2C)c(C)c1CCC(=O)Nc1ccccc1C(=O)O [Example 77] | 100% | 100%
Cc1nc2c(cnn2C(C)C)cc1C(=O)N1CCSCC1 [Example 78] | 100% | 100%
COCCN(C(=O)c1cnc2c(cnn2C(C)C)c1)C1CC1 [Example 79] | 97% | 100%
Cc1nc2c(c(C)nn2C)c(C)c1CCC(=O)NCC1CCCO1 (stereo not shown) [Example 80] | 100% | 100%
CC(C)n1ncc2cc(C(=O)NCc3ccccc3S(=O)(=O)N3CCCCC3)cnc21 [Example 81] | 100% | 100%
Cc1nn(C)c2ncc(CN3CCNCC3C)cc12 (stereo not shown) [Example 82] | 96% | 100%
CC(C)n1ncc2cc(NC(=O)N3CCN(S(=O)(=O)N4CCCCCC4)CC3)cnc21 [Example 83] | 100% | 100%
CC(C)n1ncc2cc(C(=O)Nc3ccnn3Cc3ccc(Cl)cc3Cl)cnc21 [Example 84] | 100% | 100%
CC(C)n1ncc2cc(C(=O)N(C)Cc3nc4ccccc4s3)cnc21 [Example 85] | 100% | 100%
Cc1cc(C)nc(-n2nc(C)c3c(C(F)(F)F)cc(-c4cccnc4)nc32)n1 [Example 86] | 94% | 100%
CC(=O)c1ccc(OCC(=O)Nc2cnc3c(cnn3C(C)C)c2)cc1 [Example 87] | 93% | 100%
CC(C)n1ncc2cc(NC(=O)CN(C)S(=O)(=O)c3cccs3)cnc21 [Example 88] | 94% | 100%
C=CCNC(=O)c1cnc2c(cnn2C(C)C)c1 [Example 89] | 100% | 100%
Cc1nc2c(cnn2C(C)C)cc1C(=O)NC(C)C1CCCO1 (stereo not shown) [Example 90] | 93% | 100%
Cc1nc2c(cnn2C(C)C)cc1C(=O)N1CCCN(C)c2nc3ccccc3nc21 [Example 91] | 100% | 100%
CCN(Cc1nc2ccccc2c(=O)[nH]1)C(=O)CCc1c(C)nc2c(cnn2C(C)C)c1C [Example 92] | 100% | 100%
COc1ccccc1CN(C)C(=O)c1cc2cnn(C(C)C)c2nc1C [Example 93] | 100% | 100%
CC(C)n1ncc2cc(CNc3ccc4[nH]ncc4c3)cnc21 [Example 94] | 100% | 92%
Cc1sc2nc(CN3CCCC3)nc(Nc3ccc4cn[nH]c4c3)c2c1C [Example 95] | 96% | 97%
N#Cc1nn(CN2CCSCC2)c2ccc(Cl)cc12 [Example 96] | 96% | 85%

Source: patent US20230357099A1, “PYRAZOLO [3,4-B] PYRIDINE-4-CARBOXAMIDE NITRIFICATION INHIBITOR” (EUROCHEM ANTWERPTEN, priority 2020, published 2023)
